According to the supplement of paper PMC13380429:

What was measured:
Details in all cases: 72 h
U2OS [1] = test: drug sensitivity score (DSS) for viability; higher = more toxic; extreme values may be limits of the assay
HepG2 [2] = test: as above
Caco-2 [3] = test: as above
Vero E6 [4] = test: as above
Calu-3 [5] = test: as above
U2OS [6] = test: cell viability relative to DMSO; higher = less toxic
HepG2 [7] = test: as above
Caco-2 [8] = test: as above
Vero E6 [9] = test: as above
Calu-3 [10] = test: as above
U2OS [11] = test: relative viability EC50 (midpoint between 100% and the lowest measured viability); higher = less toxic
HepG2 [12] = test: as above
Caco-2 [13] = test: as above
Vero E6 [14] = test: as above
Calu-3 [15] = test: as above

Row | SMILES | drug sensitivity score (U2OS [1]) | drug sensitivity score (HepG2 [2]) | drug sensitivity score (Caco-2 [3]) | drug sensitivity score (Vero E6 [4]) | drug sensitivity score (Calu-3 [5]) | cell viability (U2OS [6]; 1 nM) | cell viability (U2OS [6]; 10 nM) | cell viability (U2OS [6]; 100 nM) | cell viability (U2OS [6]; 1000 nM) | cell viability (U2OS [6]; 10000 nM) | cell viability (HepG2 [7]; 1 nM) | cell viability (HepG2 [7]; 10 nM) | cell viability (HepG2 [7]; 100 nM) | cell viability (HepG2 [7]; 1000 nM) | cell viability (HepG2 [7]; 10000 nM) | cell viability (Caco-2 [8]; 1 nM) | cell viability (Caco-2 [8]; 10 nM) | cell viability (Caco-2 [8]; 100 nM) | cell viability (Caco-2 [8]; 1000 nM) | cell viability (Caco-2 [8]; 10000 nM) | cell viability (Vero E6 [9]; 1 nM) | cell viability (Vero E6 [9]; 10 nM) | cell viability (Vero E6 [9]; 100 nM) | cell viability (Vero E6 [9]; 1000 nM) | cell viability (Vero E6 [9]; 10000 nM) | cell viability (Calu-3 [10]; 1 nM) | cell viability (Calu-3 [10]; 10 nM) | cell viability (Calu-3 [10]; 100 nM) | cell viability (Calu-3 [10]; 1000 nM) | cell viability (Calu-3 [10]; 10000 nM) | relative viability EC50 (U2OS [11]) | relative viability EC50 (HepG2 [12]) | relative viability EC50 (Caco-2 [13]) | relative viability EC50 (Vero E6 [14]) | relative viability EC50 (Calu-3 [15])
1 | CCS(=O)(=O)N1CCC([C@@H](C)n2c(C)c(C(=O)NCc3c(OC)cc(C)[nH]c3=O)c3ccccc32)CC1 [CPI-169] | 0 | 0 | 0 | 0 | 0 | 92.1% | 101% | 99.3% | 105% | 102% | 104% | 103% | 104% | 94.3% | 101% | 95.8% | 94.7% | 101% | 100% | 95% | 100% | 96.7% | 96.9% | 99.7% | 103% | 97.3% | 102% | 98.7% | 94.3% | 97.4% | > 10 µM | > 10 µM | > 10 µM | > 10 µM | > 10 µM
2 | O=C(O)[C@H](Cc1ccc(Nc2nccc3ccncc23)cc1)NC1=C(Br)C(=O)C12CCCCC2 [CT-7758] | 0 | 0 | 0 | 0 | 0 | 101% | 104% | 96.6% | 98.6% | 96.5% | 99.3% | 95.4% | 105% | 101% | 101% | 97.5% | 100% | 88.9% | 105% | 102% | 97.6% | 104% | 93.3% | 98.2% | 93.4% | 108% | 105% | 95.3% | 89.6% | 104% | > 10 µM | > 10 µM | > 10 µM | > 10 µM | > 10 µM
3 | CC(=O)OCC(=O)[C@@]1(O)CC[C@H]2[C@@H]3CCC4=CC(=O)CC[C@]4(C)[C@@]3(F)[C@@H](O)C[C@@]21C [FLUDROCORTISONE ACETATE] | 0 | 0.6 | 0 | 0 | 0 | 98.1% | 101% | 95.8% | 94.7% | 93.1% | 104% | 95.9% | 104% | 87.5% | 95.3% | 102% | 102% | 99.5% | 92.8% | 101% | 97.7% | 99.8% | 96.5% | 96.5% | 97.7% | 97.7% | 94.4% | 93% | 85.1% | 104% | > 10 µM | > 10 µM | > 10 µM | > 10 µM | > 10 µM
4 | COc1ccc(COc2ccc(Cc3cnc(N)nc3N)cc2OC)cc1 [GW-2580] | 0 | 0 | 0 | 0 | 0 | 99.2% | 99.3% | 94.3% | 103% | 92.2% | 113% | 108% | 108% | 99.5% | 108% | 98.2% | 97.6% | 95.7% | 102% | 91.2% | 95.3% | 97.9% | 100% | 98.3% | 96% | 110% | 102% | 97.2% | 102% | 99.7% | > 10 µM | > 10 µM | > 10 µM | > 10 µM | > 10 µM
